Legend:
Format in all cases: cell-based
[1] = system: MV-4-11 cells; experiment: MV-4-11 cell proliferation inhibition, CCK-8; conditions: Homo sapiens, MV4-11, 96 h, MV-4-11, 4 days, Table 8, positive control Ibrutinib
Procedure: The complete medium required for MV-4-11 cells is IMDM (ATCC, Product number: 30-2005) basal medium containing 10% fetal bovine serum. MV-4-11 cells were seeded in a 96-well plate at a density of 7,500 cells/well, and different concentrations of the compound of the present invention and positive control samples Alisertib (source: Bide Pharmaceuticals), Palbociclib (source: Bide Pharmaceuticals), Ibrutinib (source Bide Pharmaceuticals) treated cells. The cells were incubated in a 37° C., 5% CO2 cell incubator for 4 days. Cell viability was detected using the CCK-8 kit (Beyotime, Product number: C0040) according to the manufacturer's instructions. According to the inhibition rate, GraphPad Prism software was used to calculate the IC50 value of each compound for 4 days, and the results are shown in Table 6-8.

[2] = system: Z138 cells; experiment: Z138 cell proliferation inhibition, CCK-8; conditions: Homo sapiens, Z-138, 96 h, Z138, 4 days
Procedure: The complete medium required for Z138 cells is IMDM (ATCC, Product number: 30-2005) basal medium containing 10% horse serum. Z138 cells were seeded in a 96-well plate at a density of 10,000 cells/well, and different concentrations of the compound of the present invention and a positive control sample Ibrutinib (source: Bide Pharmaceuticals) were prepared to treat the cells. The cells were incubated in a 37° C., 5% CO2 cell incubator for 4 days. Cell viability was detected using the CCK-8 kit (Beyotime, Product number: C0040) according to the manufacturer's instructions. According to the inhibition rate, the GraphPad Prism software was used to calculate the IC50 value of each compound for 4 days, and the results are shown in Table 14.

[3] = system: 22RV1 cells; experiment: 22RV1 cell proliferation inhibition, CCK-8; conditions: 22RV1, 7 days
Procedure: The complete medium required for 22RV1 cells is RPM11640 (ATCC, Product number: 30-2001) basal medium containing 10% fetal bovine serum. 22RV1 cells were seeded in a 96-well plate at a density of 4,000 cells/well, and the next day, different concentrations of the compound of the present invention and the positive control sample JQ1 (source: Bide Pharmaceuticals) were prepared to treat the cells, and the cells were cultured at 37° C. and 5% CO2 for 7 days in the incubator. Cell viability was detected using the CCK-8 kit (Beyotime, Product number: C0040) according to the manufacturer's instructions. According to the inhibition rate, the GraphPad Prism software was used to calculate the IC50 value of each compound for 7 days, and the results are shown in Table 4.

[4] = system: T-47D cells; experiment: T-47D cell proliferation inhibition, CCK-8; conditions: Homo sapiens, T47D, 144 h, 6 days
Procedure: The complete medium required for T-47D cells is 1640 (ATCC, Product number: A10491-01) basal medium containing 10% fetal bovine serum. T-47D cells were seeded in a 96-well plate at a density of 3,000/well, and different concentrations of the compound of the present invention and the positive control sample ARV-471 (source: Innochem) were prepared to treat the cells. The cells were incubated at 37° C., 5% for 6 days in a CO2 cell incubator. Cell viability was detected using the CCK-8 kit (Beyotime, Product number: C0040) according to the manufacturer's instructions. According to the inhibition rate, the GraphPadPrism software was used to calculate the IC50 value of each compound for 6 days, and the results are shown in Table 17.

[5] = system: MCF-7 cells; experiment: MCF-7 cell proliferation inhibition, CCK-8; conditions: Homo sapiens, MCF7, 216 h, MCF-7, 9 days
Procedure: The complete medium required for MCF-7 cells is DMEM (gibco, Product number: 11995-065) basal medium containing 10% fetal bovine serum. MCF-7 cells were seeded in a 96-well plate at a density of 800/well, and different concentrations of the compound of the present invention and the positive control sample ARV-471 (source: Enochem) were prepared to treat the cells. The cells were incubated at 37° C., 5% 9 days in a CO2 cell incubator. Cell viability was detected using the CCK-8 kit (Beyotime, Product number: C0040) according to the manufacturer's instructions. According to the inhibition rate, GraphPadPrism software was used to calculate the IC50 value of each compound for 9 days, and the results are shown in Table 18.

| IC50 [1] [nM] | IC50 ([3]; Homo sapiens, 168 h) [nM] | IC50 [4] [nM] | IC50 [5] [nM] | SMILES | other results |
| --- | --- | --- | --- | --- | --- |
| 77 | – | – | – | C=CC(=O)N1CCC[C@@H](n2nc(-c3ccc(Oc4ccccc4)cc3)c3c(N)ncnc32)C1 [Ibrutinib, reference compound] | IC50 [2]: 21100 nM |
| – | – | – | – | Cc1sc2c(c1C)C(c1ccc(Cl)cc1)=N[C@@H](CC(=O)OC(C)(C)C)c1nnc(C)n1-2 [JQ1, reference compound] | IC50 [3]: 44 nM |
| – | – | – | – | Nc1ncnc2c1c(-c1ccc(Oc3ccccc3)cc1)nn2[C@@H]1CCCN(CCOCCC(=O)N2CCC3(CC2)COc2cc4c(cc2C3)C(=O)N(C2CCC(=O)NC2=O)C4=O)C1 (stereo partly drawn) [PROTAC 34, 1-(3-(2-((R)-3-(4-amino-3-(4-phenoxyphenyl)-1H-pyrazolo[3,4-d]pyrimidin-1-yl)piperidin-1-yl)ethoxy)propionyl)-7′-(2,6-dioxopiperidin-3-yl)-2′H-spiro[piperidine-4,3′-pyrano[2,3-f]isoindole]-6′,8′(4′H,7′H)-dione] | IC50 [2]: 13900 nM |
| 5.4 | 226 | – | – | Cc1sc2c(c1C)C(c1ccc(Cl)cc1)=N[C@@H](CC(=O)N1CC3(CCc4cc5c(cc4O3)CN(C3CCC(=O)NC3=O)C5=O)C1)c1nnc(C)n1-2 (stereo partly drawn) [PROTAC 46, 3-(1-(2-((S)-4-(4-chlorophenyl)-2,3,9-trimethyl-6H-thieno[3,2-f][1,2,4]triazolo[4,3-a][1,4]diazepine-6-yl)acetyl)-6′-oxo-3′,4′,6′,8′-tetrahydro-7′H-spiro[azetidine-3,2′-pyrano[2,3-f]isoindole]-7′-yl)piperidine-2,6-dione] | – |
| 17 | 103 | – | – | Cc1sc2c(c1C)C(c1ccc(Cl)cc1)=N[C@@H](CC(=O)N1CCC3(CCc4cc5c(cc4O3)CN(C3CCC(=O)NC3=O)C5=O)CC1)c1nnc(C)n1-2 (stereo partly drawn) [PROTAC 47, 3-(1-(2-((S)-4-(4-chlorophenyl)-2,3,9-trimethyl-6H-thieno[3,2-f][1,2,4]triazolo[4,3-a][1,4]diazepine-6-yl)acetyl)-6′-oxo-3′,4′,6′,8′-tetrahydro-7′H-spiro[piperidine-4,2′-pyrano[2,3-f]isoindole]-7′-yl)piperidine-2,6-dione] | – |
| 0.96 | 24 | – | – | Cc1sc2c(c1C)C(c1ccc(Cl)cc1)=N[C@@H](CC(=O)N1CCC3(CCc4cc5c(cc4O3)C(=O)N(C3CCC(=O)NC3=O)C5)CC1)c1nnc(C)n1-2 (stereo partly drawn) [PROTAC 48, 3-(1-(2-((S)-4-(4-chlorophenyl)-2,3,9-trimethyl-6H-thieno[3,2-f][1,2,4]triazolo[4,3-a][1,4]diazepine-6-yl)acetyl)-8′-oxo-3′,4′,6′,8′-tetrahydro-7′H-spiro[piperidine-4,2′-pyrano[2,3-f]isoindole]-7′-yl)piperidine-2,6-dione] | – |
| 8.2 | 141 | – | – | Cc1sc2c(c1C)C(c1ccc(Cl)cc1)=N[C@@H](CC(=O)N1CCC3(CC1)COc1cc4c(cc1O3)CN(C1CCC(=O)NC1=O)C4=O)c1nnc(C)n1-2 (stereo partly drawn) [PROTAC 49, 3-(1-(2-((S)-4-(4-chlorophenyl)-2,3,9-trimethyl-6H-thieno[3,2-f][1,2,4]triazolo[4,3-a][1,4]diazepine-6-yl)acetyl)-6′-oxo-6′,8′-dihydro-3′H,7′H-spiro[piperidin-4,2′-[1,4]dioxino[2,3-f]isoindole]-7′-yl)piperidine-2,6-dione] | – |
| 6.9 | 15 | – | – | Cc1sc2c(c1C)C(c1ccc(Cl)cc1)=N[C@@H](CC(=O)N1CCC3(CCc4cc5c(cc4O3)C(=O)N(C3CCC(=O)NC3=O)C5=O)CC1)c1nnc(C)n1-2 (stereo partly drawn) [PROTAC 50, 1-(2-((S)-4-(4-chlorophenyl)-2,3,9-trimethyl-6H-thieno[3,2-f][1,2,4]triazole[4,3-a][1,4]diazepine-6-yl)acetyl)-7′-(2,6-dioxopiperidin-3-yl)-3′,4′-dihydro-6′H-spiro[piperidine-4,2′-pyrano[2,3-f]isoindole]-6′,8′(7′H)-dione] | – |
| 20 | 123 | – | – | Cc1sc2c(c1C)C(c1ccc(Cl)cc1)=N[C@@H](CC(=O)N1CC3(CCc4cc5c(cc4O3)C(=O)N(C3CCC(=O)NC3=O)C5=O)C1)c1nnc(C)n1-2 (stereo partly drawn) [PROTAC 51, 1-(2-((S)-4-(4-chlorophenyl)-2,3,9-trimethyl-6H-thieno[3,2-f][1,2,4]triazole[4,3-a][1,4]diazepine-6-yl)acetyl)-7′-(2,6-dioxopiperidin-3-yl)-3′,4′-dihydro-6′H-spiro[azetidine-3,2′-pyrano[2,3-f]isoindole]-6′,8′(7′H)-dione] | – |
| – | – | 6.6 | 40 | O=C1CCC(N2Cc3cc4c(cc3C2=O)CCC2(CN(C3CCC5(CC3)CN(c3ccc([C@@H]6c7ccc(O)cc7CC[C@@H]6c6ccccc6)cc3)C5)C2)O4)C(=O)N1 (stereo partly drawn) [PROTAC 55, 3-(1-(2-(4-((1R,2S)-6-hydroxy-2-phenyl-1,2,3,4-tetrahydronaphthalen-1-yl)phenyl)-2-azaspiro [3.5]non-7-yl)-6′-oxo-3′,4′,6′,8′-tetrahydro-7′H-spiro[azetidine-3,2′-pyrano[2,3-f]isoindol]-7′-yl)piperidine-2,6-dione] | – |
| – | – | 1.6 | 70 | O=C1CCC(N2Cc3cc4c(cc3C2=O)CCC2(CN(C3CC5(CCN(c6ccc([C@@H]7c8ccc(O)cc8CC[C@@H]7c7ccccc7)cc6)CC5)C3)C2)O4)C(=O)N1 (stereo partly drawn) [PROTAC 56, 3-(1-(7-(4-((1R,2S)-6-hydroxy-2-phenyl-1,2,3,4-tetrahydronaphthalen-1-yl)phenyl)-7-azaspiro[3.5]non-2-yl)-6′-oxo-3′,4′,6′,8′-tetrahydro-7′H-spiro[azetidine-3,2′-pyrano[2,3-f]isoindol]-7′-yl)piperidine-2,6-dione] | – |
| – | – | 2 | 10 | O=C1CCC(N2Cc3cc4c(cc3C2=O)CCC2(CCN(C3CC5(CCN(c6ccc([C@@H]7c8ccc(O)cc8CC[C@@H]7c7ccccc7)cc6)CC5)C3)CC2)O4)C(=O)N1 (stereo partly drawn) [PROTAC 57, 3-(1-(7-(4-((1R,2S)-6-hydroxy-2-phenyl-1,2,3,4-tetrahydronaphthalen-1-yl)phenyl)-7-nitrogenheterospiro[3.5]non-2-yl)-6′-oxo-3′,4′,6′,8′-tetrahydro-7′H-spiro[piperidin-4,2′-pyrano [2,3-f]isoindole]-7′-yl)piperidine-2,6-dione] | – |
| – | – | 1 | 20 | O=C1CCC(N2Cc3cc4c(cc3C2=O)OCC2(CCN(C3CC5(CCN(c6ccc([C@@H]7c8ccc(O)cc8CC[C@@H]7c7ccccc7)cc6)CC5)C3)CC2)O4)C(=O)N1 (stereo partly drawn) [PROTAC 58, 3-(1-(7-(4-((1R,2S)-6-hydroxy-2-phenyl-1,2,3,4-tetrahydronaphthalen-1-yl)phenyl)-7-azaspiro [3.5]non-2-yl)-6′-oxo-6′,8′-dihydro-3′H,7′H-spiro[piperidine-4,2′-[1,4]dioxino[2,3-f]isoindol]-7′-yl)piperidine-2,6-dione] | – |
| – | – | 5.2 | 130 | O=C1CCC(N2Cc3ccc4c(c3C2=O)OCC2(CCN(C3CCC5(CC3)CCN(c3ccc([C@@H]6c7ccc(O)cc7CC[C@@H]6c6ccccc6)cc3)CC5)CC2)C4)C(=O)N1 (stereo partly drawn) [PROTAC 59, 3-(1-(3-(4-((1R,2S)-6-hydroxy-2-phenyl-1,2,3,4-tetrahydronaphthalen-1-yl)phenyl)-3-azaspiro[5.5]undec-9-yl)-9′-oxo-7′,9′-dihydro-2′H-spiro[piperidin-4,3′-pyrano[2,3-f]isoindole]-8′(4′H)-yl)piperidine-2,6-dione] | – |
